Results on one molecule are retold here after publication PMC7044277 (Nature Communications, 2020).

Several values for one entry are separate records, joined by “and”; a condition that tells them apart may be missing. Identical values can stand only once.

Holding throughout (format): cell-based
Experiment [1] addresses T1, 320 non-olfactory GPCRs (Homo sapiens, UniProt P35368).
T1 construct: expressed in transfected cells; host or cells: HTLA cells

Experiment [2] has as its target T2, 320 non-olfactory GPCRs (Homo sapiens, UniProt P35410).
T2 construct: expressed in transfected cells; host or cells: HTLA cells
The settings on record: receptor MAS1L; replicate values, Fig_4g.

Experiment [3] deals with T3, 320 non-olfactory GPCRs (Homo sapiens, UniProt P33032).
T3 construct: expressed in transfected cells; host or cells: HTLA cells
The settings on record: receptor MC5R; replicate values, Fig_4g.

Experiment [4] has as its target 320 non-olfactory GPCRs (Homo sapiens, UniProt P41143). The settings on record: receptor OPRD1; replicate values, Fig_4g.
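Throughout, for Fold of Basal: compound tested at 1 µM final concentration.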
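Throughout, for GPCRome agonism screen response: fold over basal response of each receptor without drug.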

Sequence of 320 non-olfactory GPCRs (Homo sapiens, UniProt P41143) (P41143 whole entry): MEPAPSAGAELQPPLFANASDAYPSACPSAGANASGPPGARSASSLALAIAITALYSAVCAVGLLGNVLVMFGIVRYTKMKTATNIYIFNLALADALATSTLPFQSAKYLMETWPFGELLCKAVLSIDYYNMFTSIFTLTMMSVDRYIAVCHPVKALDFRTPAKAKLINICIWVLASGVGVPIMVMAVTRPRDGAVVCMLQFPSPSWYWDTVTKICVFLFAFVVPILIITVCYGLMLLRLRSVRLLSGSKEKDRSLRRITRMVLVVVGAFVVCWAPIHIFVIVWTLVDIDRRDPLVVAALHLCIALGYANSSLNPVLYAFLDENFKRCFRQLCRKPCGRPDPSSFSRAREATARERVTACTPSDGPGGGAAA
T1 sequence (P35368 whole entry): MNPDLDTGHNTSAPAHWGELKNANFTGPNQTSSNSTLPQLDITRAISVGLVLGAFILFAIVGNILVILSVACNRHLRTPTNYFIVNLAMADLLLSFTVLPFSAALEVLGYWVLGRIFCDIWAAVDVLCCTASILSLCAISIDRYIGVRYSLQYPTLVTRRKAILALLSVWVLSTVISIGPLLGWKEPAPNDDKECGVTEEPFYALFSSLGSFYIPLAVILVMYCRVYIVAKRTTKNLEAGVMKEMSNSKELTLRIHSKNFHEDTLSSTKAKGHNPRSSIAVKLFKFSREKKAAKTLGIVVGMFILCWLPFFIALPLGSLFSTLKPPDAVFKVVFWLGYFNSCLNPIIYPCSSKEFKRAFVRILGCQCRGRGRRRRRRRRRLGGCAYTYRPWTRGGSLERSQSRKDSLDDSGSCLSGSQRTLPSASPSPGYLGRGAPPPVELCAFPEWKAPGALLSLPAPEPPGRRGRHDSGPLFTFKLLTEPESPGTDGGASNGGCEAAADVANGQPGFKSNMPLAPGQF
T3 sequence (P33032 whole entry): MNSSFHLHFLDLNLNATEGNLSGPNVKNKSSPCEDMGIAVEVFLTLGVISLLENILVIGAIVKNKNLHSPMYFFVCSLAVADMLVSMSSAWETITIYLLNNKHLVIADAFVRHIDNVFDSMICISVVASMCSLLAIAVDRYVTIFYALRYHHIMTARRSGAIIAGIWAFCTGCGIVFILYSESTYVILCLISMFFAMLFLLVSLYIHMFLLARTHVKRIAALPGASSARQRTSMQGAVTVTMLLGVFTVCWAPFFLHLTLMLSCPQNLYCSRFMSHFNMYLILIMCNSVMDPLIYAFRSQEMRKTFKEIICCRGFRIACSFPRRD
T2 sequence (P35410 whole entry): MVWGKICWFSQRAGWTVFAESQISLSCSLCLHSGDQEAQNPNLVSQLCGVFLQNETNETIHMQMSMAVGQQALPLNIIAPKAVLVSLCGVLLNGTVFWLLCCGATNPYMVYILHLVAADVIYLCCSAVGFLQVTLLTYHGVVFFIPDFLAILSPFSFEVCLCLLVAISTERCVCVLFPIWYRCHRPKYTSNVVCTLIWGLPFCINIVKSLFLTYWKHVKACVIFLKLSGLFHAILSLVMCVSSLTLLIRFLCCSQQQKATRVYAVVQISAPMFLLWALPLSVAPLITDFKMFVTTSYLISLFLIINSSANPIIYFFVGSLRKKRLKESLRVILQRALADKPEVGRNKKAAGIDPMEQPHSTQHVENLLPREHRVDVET

`CCOc1cccc2cc(C(C)NCC3(O)CCCCC3)oc12` (stereo not shown) [O4LE6]: the “Fold of Basal” value on 320 non-olfactory GPCRs [1] was 1.636 and 0.8834 and 1.032 and 1.027. Further, the “GPCRome agonism screen response” value was 0.5688 and 0.6917 and 1.207 and 0.7272 at 320 non-olfactory GPCRs [2]; 1.253 and 1.116 and 1.497 and 1.062 on 320 non-olfactory GPCRs [3]; 1.015 and 0.7396 and 0.6746 and 0.921 at 320 non-olfactory GPCRs [4].
